Experimental data as given in the NIST ThermoML archive (doi:10.1021/je060271a).
Numbers after ± are expanded uncertainties.

Details: 343.15 K, Liquid, Vibrating tube method

Compound `CCCCCCCC(=O)OCC(COC(=O)CCCCCCC)(COC(=O)CCCCCCC)COC(=O)CCCCCCC` [pentaerythritol tetraoctanoate] has a mass density (18521 kPa) of 939.1 ± 1.2 kg/m3, a mass density (18542 kPa) of 939.2 ± 1.2 kg/m3 and a mass density (18560 kPa) of 939.1 ± 1.2 kg/m3. The mass density (18577 kPa) was 939.1 ± 1.2 kg/m3, the mass density (18598 kPa) was 939.1 ± 1.2 kg/m3 and the mass density (18616 kPa) was 939.1 ± 1.2 kg/m3. It also gave a mass density (18635 kPa) of 939.2 ± 1.2 kg/m3, a mass density (18657 kPa) of 939.2 ± 1.2 kg/m3 and a mass density (18673 kPa) of 939.2 ± 1.2 kg/m3. It also gave a mass density (18695 kPa) of 939.2 ± 1.2 kg/m3, a mass density (18712 kPa) of 939.1 ± 1.2 kg/m3 and a mass density (18730 kPa) of 939.3 ± 1.2 kg/m3. For the same compound, the mass density (18752 kPa) was 939.4 ± 1.2 kg/m3, the mass density (18771 kPa) was 939.4 ± 1.2 kg/m3 and the mass density (18789 kPa) was 939.2 ± 1.2 kg/m3. For the same compound, the mass density (18812 kPa) was 939.2 ± 1.2 kg/m3, the mass density (18830 kPa) was 939.2 ± 1.2 kg/m3 and the mass density (18848 kPa) was 939.3 ± 1.2 kg/m3. For the same compound, the mass density (18870 kPa) was 939.4 ± 1.2 kg/m3, the mass density (18888 kPa) was 939.3 ± 1.2 kg/m3 and the mass density (18907 kPa) was 939.4 ± 1.2 kg/m3. The mass density (18926 kPa) was 939.4 ± 1.2 kg/m3, the mass density (18948 kPa) was 939.4 ± 1.2 kg/m3 and the mass density (18967 kPa) was 939.4 ± 1.2 kg/m3. The mass density (18986 kPa) was 939.4 ± 1.2 kg/m3, the mass density (19008 kPa) was 939.4 ± 1.2 kg/m3 and the mass density (19027 kPa) was 939.4 ± 1.2 kg/m3. For the same compound, the mass density (19049 kPa) was 939.6 ± 1.2 kg/m3, the mass density (19068 kPa) was 939.5 ± 1.2 kg/m3 and the mass density (19087 kPa) was 939.4 ± 1.2 kg/m3. For the same compound, the mass density (19106 kPa) was 939.5 ± 1.2 kg/m3, the mass density (19129 kPa) was 939.5 ± 1.2 kg/m3 and the mass density (19148 kPa) was 939.4 ± 1.2 kg/m3. The mass density (19167 kPa) was 939.5 ± 1.2 kg/m3, the mass density (19190 kPa) was 939.6 ± 1.2 kg/m3 and the mass density (19210 kPa) was 939.6 ± 1.2 kg/m3. It also gave a mass density (19225 kPa) of 939.6 ± 1.2 kg/m3, a mass density (19248 kPa) of 939.6 ± 1.2 kg/m3 and a mass density (19271 kPa) of 939.5 ± 1.2 kg/m3. The mass density (19291 kPa) was 939.6 ± 1.2 kg/m3, the mass density (19310 kPa) was 939.7 ± 1.2 kg/m3 and the mass density (19334 kPa) was 939.6 ± 1.2 kg/m3. For the same compound, the mass density (19353 kPa) was 939.6 ± 1.2 kg/m3, the mass density (19373 kPa) was 939.6 ± 1.2 kg/m3 and the mass density (19396 kPa) was 939.7 ± 1.2 kg/m3. For the same compound, the mass density (19416 kPa) was 939.7 ± 1.2 kg/m3, the mass density (19436 kPa) was 939.7 ± 1.2 kg/m3 and the mass density (19456 kPa) was 939.8 ± 1.2 kg/m3. It also gave a mass density (19480 kPa) of 939.6 ± 1.2 kg/m3, a mass density (19499 kPa) of 939.7 ± 1.2 kg/m3 and a mass density (19519 kPa) of 939.6 ± 1.2 kg/m3. For the same compound, the mass density (19543 kPa) was 939.7 ± 1.2 kg/m3, the mass density (19563 kPa) was 939.8 ± 1.2 kg/m3 and the mass density (19587 kPa) was 939.8 ± 1.2 kg/m3. For the same compound, the mass density (19608 kPa) was 939.8 ± 1.2 kg/m3, the mass density (19627 kPa) was 939.7 ± 1.2 kg/m3 and the mass density (19647 kPa) was 939.8 ± 1.2 kg/m3. For the same compound, the mass density (19671 kPa) was 939.9 ± 1.2 kg/m3, the mass density (19691 kPa) was 939.7 ± 1.2 kg/m3 and the mass density (19712 kPa) was 939.8 ± 1.2 kg/m3. It also gave a mass density (19736 kPa) of 939.8 ± 1.2 kg/m3, a mass density (19756 kPa) of 939.8 ± 1.2 kg/m3 and a mass density (19780 kPa) of 939.9 ± 1.2 kg/m3. The mass density (19801 kPa) was 940.1 ± 1.2 kg/m3, the mass density (19821 kPa) was 940.1 ± 1.2 kg/m3 and the mass density (19841 kPa) was 939.9 ± 1.2 kg/m3. It also gave a mass density (19866 kPa) of 940 ± 1.2 kg/m3, a mass density (19887 kPa) of 940 ± 1.2 kg/m3 and a mass density (19907 kPa) of 940 ± 1.2 kg/m3. It also gave a mass density (19932 kPa) of 940 ± 1.2 kg/m3, a mass density (19952 kPa) of 940.1 ± 1.2 kg/m3 and a mass density (19977 kPa) of 940 ± 1.2 kg/m3. It also gave a mass density (19999 kPa) of 940 ± 1.2 kg/m3, a mass density (20019 kPa) of 940 ± 1.2 kg/m3 and a mass density (20040 kPa) of 940.1 ± 1.2 kg/m3. For the same compound, the mass density (20065 kPa) was 940 ± 1.2 kg/m3, the mass density (20108 kPa) was 940.1 ± 1.2 kg/m3 and the mass density (20155 kPa) was 940.1 ± 1.2 kg/m3. For the same compound, the mass density (20180 kPa) was 940.2 ± 1.2 kg/m3, the mass density (20201 kPa) was 940.2 ± 1.2 kg/m3 and the mass density (20223 kPa) was 940.1 ± 1.2 kg/m3. It also gave a mass density (20245 kPa) of 940.2 ± 1.2 kg/m3, a mass density (20271 kPa) of 940.1 ± 1.2 kg/m3 and a mass density (20295 kPa) of 940.1 ± 1.2 kg/m3. It also gave a mass density (20316 kPa) of 940.3 ± 1.2 kg/m3, a mass density (20338 kPa) of 940.2 ± 1.2 kg/m3 and a mass density (20364 kPa) of 940.2 ± 1.2 kg/m3. It also gave a mass density (20386 kPa) of 940.3 ± 1.2 kg/m3, a mass density (20408 kPa) of 940.3 ± 1.2 kg/m3 and a mass density (20434 kPa) of 940.3 ± 1.2 kg/m3. For the same compound, the mass density (20527 kPa) was 940.5 ± 1.2 kg/m3, the mass density (20550 kPa) was 940.3 ± 1.2 kg/m3 and the mass density (20577 kPa) was 940.3 ± 1.2 kg/m3. It also gave a mass density (20596 kPa) of 940.4 ± 1.2 kg/m3, a mass density (20622 kPa) of 940.5 ± 1.2 kg/m3 and a mass density (20645 kPa) of 940.4 ± 1.2 kg/m3. It also gave a mass density (20667 kPa) of 940.5 ± 1.2 kg/m3, a mass density (20690 kPa) of 940.5 ± 1.2 kg/m3 and a mass density (20708 kPa) of 940.5 ± 1.2 kg/m3. It also gave a mass density (20731 kPa) of 940.6 ± 1.2 kg/m3, a mass density (20753 kPa) of 940.5 ± 1.2 kg/m3 and a mass density (20790 kPa) of 940.5 ± 1.2 kg/m3. It also gave a mass density (20813 kPa) of 940.5 ± 1.2 kg/m3, a mass density (20836 kPa) of 940.5 ± 1.2 kg/m3 and a mass density (20864 kPa) of 940.6 ± 1.2 kg/m3. The mass density (20887 kPa) was 940.6 ± 1.2 kg/m3, the mass density (20910 kPa) was 940.5 ± 1.2 kg/m3 and the mass density (20938 kPa) was 940.7 ± 1.2 kg/m3. For the same compound, the mass density (20961 kPa) was 940.6 ± 1.2 kg/m3, the mass density (20984 kPa) was 940.8 ± 1.2 kg/m3 and the mass density (21008 kPa) was 940.5 ± 1.2 kg/m3. For the same compound, the mass density (21036 kPa) was 940.7 ± 1.2 kg/m3, the mass density (21059 kPa) was 940.8 ± 1.2 kg/m3 and the mass density (21087 kPa) was 940.8 ± 1.2 kg/m3. It also gave a mass density (21110 kPa) of 940.8 ± 1.2 kg/m3, a mass density (21134 kPa) of 940.7 ± 1.2 kg/m3 and a mass density (21162 kPa) of 940.8 ± 1.2 kg/m3. The mass density (21185 kPa) was 940.8 ± 1.2 kg/m3, the mass density (21215 kPa) was 940.8 ± 1.2 kg/m3 and the mass density (21239 kPa) was 940.8 ± 1.2 kg/m3. The mass density (21262 kPa) was 940.9 ± 1.2 kg/m3, the mass density (21286 kPa) was 940.9 ± 1.2 kg/m3 and the mass density (21315 kPa) was 940.9 ± 1.2 kg/m3. The mass density (21339 kPa) was 940.9 ± 1.2 kg/m3, the mass density (21363 kPa) was 940.9 ± 1.2 kg/m3 and the mass density (21392 kPa) was 941 ± 1.2 kg/m3. It also gave a mass density (21416 kPa) of 941 ± 1.2 kg/m3, a mass density (21440 kPa) of 941 ± 1.2 kg/m3 and a mass density (21469 kPa) of 940.9 ± 1.2 kg/m3. It also gave a mass density (21494 kPa) of 941.1 ± 1.2 kg/m3, a mass density (21518 kPa) of 941.1 ± 1.2 kg/m3 and a mass density (21548 kPa) of 941 ± 1.2 kg/m3. For the same compound, the mass density (21573 kPa) was 941.1 ± 1.2 kg/m3, the mass density (21597 kPa) was 941.1 ± 1.2 kg/m3 and the mass density (21622 kPa) was 941.1 ± 1.2 kg/m3. It also gave a mass density (21652 kPa) of 941.1 ± 1.2 kg/m3, a mass density (21677 kPa) of 941.1 ± 1.2 kg/m3 and a mass density (21702 kPa) of 941.2 ± 1.2 kg/m3. For the same compound, the mass density (21732 kPa) was 941.3 ± 1.2 kg/m3, the mass density (21757 kPa) was 941.3 ± 1.2 kg/m3 and the mass density (21782 kPa) was 941.2 ± 1.2 kg/m3. The mass density (21812 kPa) was 941.2 ± 1.2 kg/m3, the mass density (21837 kPa) was 941.1 ± 1.2 kg/m3 and the mass density (21863 kPa) was 941.2 ± 1.2 kg/m3. For the same compound, the mass density (21890 kPa) was 941.1 ± 1.2 kg/m3, the mass density (21920 kPa) was 941.2 ± 1.2 kg/m3 and the mass density (21946 kPa) was 941.3 ± 1.2 kg/m3. For the same compound, the mass density (21977 kPa) was 941.3 ± 1.2 kg/m3.
